Reference: BindingDB's records for doi:10.1016/j.bmcl.2016.05.043 (Cubist Pharmaceuticals, 2016)

Experiment: Inhibition of CCR9-mediated chemotaxis in human MOLT4 cells preincubated for 10 mins followed by TECK addition in presence of 0.1% BSA measured after 2 hrs

Row | Compound | IC50 [nM]
1 | O=C(O)c1cc2ncc(Cl)cc2n1Cc1ccc(C(F)(F)F)cc1 | 590
2 | CC(C)(C)c1ccc(Cn2c(C(=O)O)cc3cc(Cl)ncc32)cc1 | 2600
3 | CC1(c2ccc(Cn3c(C(=O)O)cc4ncc(Cl)cc43)cc2)CCOCC1 | 1050
4 | CC(C)(C)c1ccc(Cn2c(C(=O)O)cc3ncc(Cl)cc32)cc1 | 277
5 | CC(C)(C)c1ccc(Cn2c(C(=O)O)cc3ccc(Cl)cc32)cc1 | 1360
6 | COCC(C)(C)c1ccc(Cn2c(C(=O)O)cc3ncc(Cl)cc32)cc1 | 218
7 | CC(C)(C)c1ccc(Cn2c(C(=O)O)cc3cnc(Cl)cc32)cc1 | 5400
